Source: patent US5965568A, “Composition for inhibiting production or secretion of amyloid β protein to treat Down's syndrome” (priority 1995, dated 1999)

How the values were obtained:
[1] = tested on: Aβ (1-40) production and secretion in guinea pig primary culture neurons; test: Inhibitory activity against Aβ (1-40) production and secretion in guinea pig primary culture neurons (EIA); type: cell-based; conditions: 3×10^-5 M, 24 hours
Source text: Aβ (1-40) and Aβ (1-42) in the culture supernatant were quantified in the same manner as that described in Experiment 1.

IMR-32 cells [2] = test: Evaluation of the cytotoxicity, MTT method, IMR-32 cells; type: cell-based, human; conditions: 1×10^-4 (maximum concentration used)
Protocol: The culture supernatant was sampled, and DMEM culture solution (500 μl) containing 1.2 mM MTT {3-(4,5dimethyl-2-thiazolyl)-2,5-diphenyl-2H-tetrazolium bromide} was added. The reaction was carried out for 1 hour at 37° C., and then an equal amount of 10% sodium dodecyl sulfate solution was added. The mixture was gently stirred overnight to dissolve the resulting formazan, and then subjected to colorimetry (wavelength: 550 nm) with a plate reader.
Four wells were used per dose of the drug. The value in the data was represented as a ratio (%) to the control group. Dunnett's t test was used for the statistical analysis.

[3] = tested on: Aβ (1-42) production and secretion in IMR-32 cells; test: Inhibitory activity against Aβ (1-42) production or secretion in human neuroblastoma IMR-32 cells (EIA, BAN-50/BC-05); type: cell-based; conditions: not a significant change
Source text: (§1) Studies on Aβ production or secretion in human-derived neurons and gliocytes are very interesting because of the relation to Alzheimer's dementia. However, human primary culture neurons and gliocytes cannot generally be used for experimental materials. IMR-32 cells were therefore used. The IMR-32 cells are human-derived neuroblastoma cells, and produce and secrete Aβ in the culture supernatant (Shinkei Kagaku (Neurochemistry) 33, 232 (1994)). In addition, Dr. Hironobu Suzuki et al. (Science, 264, 1336 (1994)) had developed an enzyme immunoassay method that can determine and distinguish between Aβ of 40 amino acids (Aβ (1-40)) and Aβ of 42 amino acids (Aβ (1-42)). This method was used to determine inhibitory activity of the test compound against Aβ production or secretion.
Human neuroblastoma IMR-32 cells were purchased from American Type Culture Collection (ATCC). Dulbecco's modified Eagle's medium (DMEM) was purchased from Nissui Pharmaceutical Co., Ltd., Japan. Fetal calf serum (hereinaftersometimes abbreviated as FCS) and a mixed solution of penicillin (5000 U/ml) and streptomycin (5 mg/ml) were purchased from Biowhittaker Inc. Phosphate buffered saline (PBS) was purchased from Flow Laboratories. Block Ace was purchased from Dainippon Pharmaceutical Co., Ltd. Bovine serum albumin (BSA) was purchased from Sigma. […]

[4] = tested on: guinea pig primary culture neurons
Protocol: Fetal brains were taken out from guinea pigs (SLC-Hartley) that was 28 days pregnant. The cerebral cortex and hippocampus were taken out under a stereoscopic microscope, and, after removing the meninges, were treated in Hank's Balanced Salt Solution (20 ml) containing 0.25% trypsin/0.01% DNase I for 10 minutes. FCS was added to stop the reaction, and the mixture was centrifuged. The cells were dispersed in DMEM culture solution (DMEM/N2 culture solution) containing insulin 5 μg/ml, transferrin 100 μg/ml, progesterone 20 nM, putrescine 100 μM and sodium selenite 30 nM. The dispersion was filtered through double lens paper, and the filtrate was centrifuged to collect the cells. The cells were dispersed in DMEM/N2 culture solution, and inoculated in a 24-well plate at a density of 1×10^-6 cells/well. On the second day from the beginning of the cultivation, the culture solution was replaced with DMEM/N2 culture solution containing cytosine arabinoside (1 μM). After the treatment for 3 days, the culture solution was replaced with DMEM/N2 culture solution. Thereafter, the culture solution was replaced every 2 to 3 days. […] After the culture supernatant was collected, DMEM culture solution (300 μl) containing 1.2 mM MTT was added. After the reaction was carried out at 37° C. for 1 hour, an equal amount of 10% sodium dodecyl sulfate solution was added.

IMR-32 cells [5] = test: Evaluation of the cytotoxicity, lactate dehydrogenase (LDH) method, IMR-32 cells; type: cell-based, human; conditions: 1×10^-4 (maximum concentration used)
Protocol: IMR-32 cells were cultured at 37° C. in 10% carbon dioxide/90% air using 10% FCS/DMEM culture solution in a flask (Falcon, 750 ml) until the confluent growth of the cells was obtained. Then, the cells were inoculated in a 48-well multi well plate at a density of 2.5×10^5 cells/well, and cultured for 5 days. […] The cells were cultured for 24 hours. […] The culture supernatant (10 μl) obtained after the assay of Aβ (1-40) was sampled, and the amount of LDH released from the cells was determined with a LDH assay kit (LDH C-II manufactured by Wako Pure Chemical Industries, Ltd.). Four wells were used per dose of the drug. The value in the data was represented as a ratio (%) to the control group. Dunnett's t test was used for the statistical analysis.

[6] = tested on: Aβ production or secretion in IMR-32 cells; test: Inhibitory activity against Aβ production or secretion in human neuroblastoma IMR-32 cells (EIA); type: cell-based; conditions: 24 hours, vs control group, mean of 4 wells, read-out: inhibition of Aβ production or secretion, based on the control group
Source text: as §1
Human neuroblastoma IMR-32 cells were purchased from American Type Culture Collection (ATCC). Dulbecco's modified Eagle's medium (DMEM) was purchased from Nissui Pharmaceutical Co., Ltd., Japan. Fetal calf serum (hereinaftersometimes abbreviated as FCS) and a mixed solution of penicillin (5000 U/ml) and streptomycin (5 mg/ml) were purchased from Biowhittaker Inc. Phosphate buffered saline (PBS) was purchased from Flow Laboratories. Block Ace was purchased from Dainippon Pharmaceutical Co., Ltd. Bovine serum albumin (BSA) was purchased from Sigma. Flasks for culture and 48-well multi well plates were those manufactured by Falcon and Coster Corporation, respectively. Standard samples of Aβ (1-40) and Aβ (1-42) were purchased from Bachem. The other reagents used were commercially available highest quality goods.
IMR-32 cells were cultured at 37° C. in 10% carbon dioxide/90% air using 10% FCS/DMEM culture solution in a flask (Falcon, 750 ml) until the confluent growth of the cells was obtained. Then, the cells were inoculated in a 48-well multi well plate at a density of 2.5×10^5 cells/well, and cultured for 5 days. The culture solution was sucked off, and then DMEM/0.5% BSA (0.5 ml for the assay of Aβ (1-40) or 0.25 ml for the assay of Aβ (1-42)) was added. The cells were cultured for 24 hours.
In each case, the primary antibody was BAN-50 antibody that recognizes the N-terminal region of Aβ (1-40). BA-27 is an antibody prepared using Aβ (1-40) as an antigen, and recognizes the C-terminal region of Aβ (1-40). On the other hand, BC-05 antibody is an antibody prepared using Aβ (35-43) as an antigen, and recognizes the C-terminal region of Aβ (1-42) but not Aβ (1-40). Therefore, Aβ (1-40) can be assayed with a combination of BAN-50 antibody with BA-27 antibody, and Aβ (1-42) can be assayed with a combination of BAN-50 antibody with BC-05 antibody. […]

[7] = has been used as a medicament; cited from earlier work
secreted βAPP = conditions: in vitro various cells; cited from earlier work
[8] = tested on: Aβ production or secretion; conditions: in vitro various cells; cited from earlier work

Row | Structure (SMILES) | production or secretion of Aβ (1-40) [1] | cytotoxicity (formazan formed from MTT) (IMR-32 cells [2]) | Aβ (1-42) production and secretion compared to the control group ([3]; 1×10^-5 M) | Aβ (1-42) production and secretion compared to the control group ([3]; 3×10^-6 M) | cytotoxicity (MTT) [4] | cytotoxicity (LDH activity in the culture supernatant) (IMR-32 cells [5]) | inhibition at 100 µM ([6]; 1×10^-4 M) [%] | inhibition at 10 µM ([6]; 1×10^-5 M) [%] | inhibition at 30 µM ([6]; 3×10^-5 M) [%] | inhibition at 3 µM ([6]; 3×10^-6 M) [%] | toxic problems in use as a medicament [7] | secreted βAPP (secreted βAPP) | Aβ production or secretion [8]
1 | CCOC(=O)C1=C[C@]2(CC)CCCN3CCc4c(n1c1ccccc41)[C@@H]32 [Vinpocetine, vinpocetine] | inhibited production or secretion of Aβ (1-40) | only slight cytotoxicity | showed a tendency to decrease | showed a tendency to decrease | without any cytotoxicity | only slight cytotoxicity | 45 | 30 | 40 | 10 | no toxic problems |  | 
2 | C[N+](C)(C)CCOC(N)=O [carbacol] |  |  |  |  |  |  |  |  |  |  |  | increase the secreted βAPP | inhibit Aβ production or secretion
